Patent EP4707280A1, “1,4-CINEOLE DERIVATIVE AND INTERMEDIATE THEREOF, HERBICIDE CONTAINING SAID DERIVATIVE AS ACTIVE INGREDIENT, METHOD FOR USING HERBICIDE, AND METHOD FOR PREPARING AGROCHEMICAL COMPOSITION” (HOKKO CHEMICAL INDUSTRY CO., LTD., priority 2023, dated 2024)

Experiments:
Format in all cases: in vivo
Echinochloa crus-galli [1] = assay: Test Example 4: herbicidal effect test by stem and leaf treatment in upland field; details: Echinochloa crus-galli; 120 g per 10 ares; sprayed seven days after sowing, upland soil; 14 days after application; read-out: weed inhibition rate
Monochoria vaginalis [2] = assay: Test Example 1: herbicidal effect test by soil application in paddy rice; details: Pontederia vaginalis, soil, 336 h; 120 g active ingredient per 10 ares; applied immediately after sowing, flooded pots; 14 days after application; read-out: weed inhibition rate
Experimental: Wagner pots with an area of […] were filled with paddy soil, followed by addition of water and incorporation of chemical fertilizer (N:P:K = 16:16:16), after which puddling was performed. After that, seeds of Echinochloa crus-galli var. formosensis, broad-leaved weeds (Lindernia pyxidaria and Monochoria vaginalis), and Scirpus juncoides were sown at a depth of 0 cm to 1 cm, 30 seeds each. Immediately after sowing, the pots were flooded and a water depth of approximately 3 cm was maintained. Subsequent management was conducted in a glass greenhouse. Immediately thereafter, an emulsifiable concentrate prepared according to Formulation Example 5 using the compound shown below was diluted with water, and a specified amount of the diluted solution was applied by dropper. The amount of the active ingredient to be applied was equivalent to 120 g per 10 ares.
The present test was conducted in duplicate for each chemical concentration group, and the weed inhibition rate (%) was determined 14 days after chemical application using the following formula (Math. 1). [formula]

[3] = test system: Echinochloa crus-galli var. formosensis; assay: as above; details: Echinochloa crus-galli, soil, 336 h; 120 g active ingredient per 10 ares; applied immediately after sowing, flooded pots; 14 days after application; read-out: weed inhibition rate
Method in brief: (§1)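 Paddy soil in Wagner pots (1/10,000 acre) was fertilized (N:P:K 16:16:16) and puddled, then weed seeds were sown 0–1 cm deep, 30 each. Pots were flooded to ~3 cm and kept in a glass greenhouse. Emulsifiable concentrate diluted in water was dropped on immediately after sowing at 120 g a.i. per 10 ares.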

Scirpus juncoides [4] = assay: as above; details: Schoenoplectiella juncoides, soil, 336 h; 120 g active ingredient per 10 ares; applied immediately after sowing, flooded pots; 14 days after application; read-out: weed inhibition rate
Method in brief: as §1

Echinochloa crus-galli [5] = assay: Test Example 3: herbicidal effect test by soil application in upland field; details: Echinochloa crus-galli, 120 g per 10 ares, sprayed one day after sowing, 14 days after application, read-out: weed inhibition rate
Method in brief: (§2)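 Pre-emergence test: seeds mixed into top 1 cm of alluvial loam upland soil in pots; emulsifiable concentrate diluted in water sprayed on soil one day after sowing at 100 L/10 a, 120 g a.i./10 a. Weed inhibition rate (%) scored at 14 days, in duplicate.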

Digitaria ciliaris [6] = assay: as above; details: Digitaria ciliaris, 120 g per 10 ares, sprayed one day after sowing, 14 days after application, read-out: weed inhibition rate
Method in brief: as §2

[7] = test system: Echinochloa crus-galli var. formosensis; assay: Test Example 2: herbicidal effect test by application during growth period of paddy rice; details: Echinochloa crus-galli; 120 g per 10 ares; applied seven days after sowing, flooded pots; 14 days after application; read-out: weed inhibition rate
Method in brief: (§3)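 Greenhouse pots of flooded paddy soil, seeded shallowly with 30 seeds per weed, are treated on day 7 by dropper with diluted emulsifiable concentrate equal to 120 g a.i./10 a. Duplicate pots are scored for inhibition rate 14 days post-application.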

Monochoria vaginalis [8] = assay: as above; details: Pontederia vaginalis; 120 g per 10 ares; applied seven days after sowing, flooded pots; 14 days after application; read-out: weed inhibition rate
Method in brief: as §3

Digitaria ciliaris [9] = assay: Test Example 4: herbicidal effect test by stem and leaf treatment in upland field; details: Digitaria ciliaris; 120 g per 10 ares; sprayed seven days after sowing, upland soil; 14 days after application; read-out: weed inhibition rate
[10] = test system: Echinochloa crus-galli var. formosensis; assay: Test Example 6: herbicidal effect test by application during growth period of paddy rice (low dose); details: Echinochloa crus-galli; 7.5 g per 10 ares; applied seven days after sowing, flooded pots; 14 days after application; read-out: weed inhibition rate
Method in brief: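 Paddy soil in flooded Wagner pots (about 3 cm water), weeds sown at 0–1 cm, 30 seeds each, grown in a glass greenhouse. Seven days after sowing, water-diluted emulsifiable concentrate was dropped into the water at 7.5 g active ingredient per 10 ares. Weed inhibition rate (%) was scored 14 days after application, in duplicate.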

Echinochloa crus-galli [11] = assay: Test Example 7: herbicidal effect test by soil application in upland field (low dose); details: Echinochloa crus-galli, 7.5 g per 10 ares, sprayed one day after sowing, 14 days after application, read-out: weed inhibition rate
Method in brief: (§4)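 Duplicate pots of alluvial loam, seeds incorporated in the surface 1 cm. Soil surface sprayed 1 d after sowing (EC in water, 100 L/10 a; 7.5 g a.i./10 a). Endpoint: % inhibition, day 14.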

Digitaria ciliaris [12] = assay: as above; details: Digitaria ciliaris, 7.5 g per 10 ares, sprayed one day after sowing, 14 days after application, read-out: weed inhibition rate
Method in brief: as §4

Scirpus juncoides [13] = assay: Test Example 2: herbicidal effect test by application during growth period of paddy rice; details: Schoenoplectiella juncoides; 120 g per 10 ares; applied seven days after sowing, flooded pots; 14 days after application; read-out: weed inhibition rate
Method in brief: as §3

[14] = test system: Echinochloa crus-galli var. formosensis; assay: Test Example 5: herbicidal effect test by soil application in paddy rice (low dose); details: Echinochloa crus-galli, soil, 336 h; 7.5 g per 10 ares; applied immediately after sowing, flooded pots; 14 days after application; read-out: weed inhibition rate
Method in brief: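 7.5 g a.i./10 a applied by dropper into ~3 cm floodwater immediately post-sowing (seeds 0–1 cm, 30 per species; puddled fertilized paddy soil, glasshouse). Duplicates; day-14 inhibition %.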

Echinochloa crus-galli [15] = assay: Test Example 8: herbicidal effect test by stem and leaf treatment in upland field (low dose); details: Echinochloa crus-galli; 7.5 g per 10 ares; sprayed seven days after sowing, upland soil; 14 days after application; read-out: weed inhibition rate
Digitaria ciliaris [16] = assay: as above; details: Digitaria ciliaris; 7.5 g per 10 ares; sprayed seven days after sowing, upland soil; 14 days after application; read-out: weed inhibition rate

CC(C)[C@]12C[C@@H](OCc3ccccc3F)[C@](C)(CC13OCCO3)O2 [1-936, (1R,4S,5R)-5-((2-fluorobenzyl)oxy)-1-isopropyl-4-methyl-7-oxaspiro[bicyclo[2.2.1]heptane-2,2'-[1,3]dioxolane]]
≥ 80%: inhibition at 1200 g/ha (Echinochloa crus-galli [1]) | pest or weed control at 1200 g/ha (Monochoria vaginalis [2]) | pest or weed control at 1200 g/ha [3] | pest or weed control at 1200 g/ha (Scirpus juncoides [4]) | inhibition at 1200 g/ha (Echinochloa crus-galli [5]) | inhibition at 1200 g/ha (Digitaria ciliaris [6]) | inhibition at 1200 g/ha [7]

CC(C)[C@]12C[C@@H](OCc3ccccc3)[C@](C)(CC1=O)O2 [2-1, (1R,4S,5R)-5-(benzyloxy)-1-isopropyl-4-methyl-7-oxabicyclo[2.2.1]heptan-2-one]
≥ 80%: inhibition at 1200 g/ha (Echinochloa crus-galli [1]) | pest or weed control at 1200 g/ha (Monochoria vaginalis [2]) | pest or weed control at 1200 g/ha [3] | inhibition at 1200 g/ha (Echinochloa crus-galli [5]) | inhibition at 1200 g/ha (Digitaria ciliaris [6]) | inhibition at 1200 g/ha [7] | inhibition at 1200 g/ha (Monochoria vaginalis [8]) | inhibition at 1200 g/ha (Digitaria ciliaris [9])

CC(C)[C@]12C[C@@H](OCc3ccccc3C#N)[C@](C)(CC1=O)O2 [2-354, 2-((((1S,2R,4R)-4-isopropyl-1-methyl-5-oxo-7-oxabicyclo[2.2.1]heptan-2-yl)oxy)methyl)benzonitrile]
≥ 80%: inhibition at 1200 g/ha (Echinochloa crus-galli [1]) | pest or weed control at 1200 g/ha (Monochoria vaginalis [2]) | pest or weed control at 1200 g/ha [3] | pest or weed control at 1200 g/ha (Scirpus juncoides [4]) | inhibition at 75 g/ha [10] | inhibition at 75 g/ha (Echinochloa crus-galli [11]) | inhibition at 75 g/ha (Digitaria ciliaris [12]) | inhibition at 1200 g/ha (Echinochloa crus-galli [5]) | inhibition at 1200 g/ha (Digitaria ciliaris [6]) | inhibition at 1200 g/ha [7] | inhibition at 1200 g/ha (Scirpus juncoides [13]) | inhibition at 1200 g/ha (Digitaria ciliaris [9]) | inhibition at 75 g/ha [14]

Cc1ccccc1CO[C@@H]1C[C@]2(C(C)C)O[C@@]1(C)C=C2c1ccccc1 [3-175, (1R,4S,5R)-1-isopropyl-4-methyl-5-((2-methylbenzyl)oxy)-2-phenyl-7-oxabicyclo[2.2.1]hept-2-ene]
≥ 80%: inhibition at 1200 g/ha (Echinochloa crus-galli [1]) | pest or weed control at 1200 g/ha (Monochoria vaginalis [2]) | pest or weed control at 1200 g/ha [3] | inhibition at 1200 g/ha (Echinochloa crus-galli [5]) | inhibition at 1200 g/ha (Digitaria ciliaris [6]) | inhibition at 1200 g/ha [7] | inhibition at 1200 g/ha (Monochoria vaginalis [8]) | inhibition at 1200 g/ha (Digitaria ciliaris [9])

CC(C)C12C=CC(C)(O1)C(OCc1ccccc1F)C2 (centres unmarked) [3-754, 5-[(2-fluorophenyl)methoxy]-4-methyl-1-isopropyl-7-oxabicyclo[2.2.1]hept-2-ene]
≥ 80%: inhibition at 1200 g/ha (Echinochloa crus-galli [1]) | pest or weed control at 1200 g/ha [3] | pest or weed control at 1200 g/ha (Scirpus juncoides [4]) | inhibition at 75 g/ha [10] | inhibition at 75 g/ha (Echinochloa crus-galli [11]) | inhibition at 75 g/ha (Digitaria ciliaris [12]) | inhibition at 1200 g/ha (Echinochloa crus-galli [5]) | inhibition at 1200 g/ha (Digitaria ciliaris [6]) | inhibition at 1200 g/ha [7] | inhibition at 1200 g/ha (Scirpus juncoides [13]) | inhibition at 75 g/ha (Echinochloa crus-galli [15]) | inhibition at 75 g/ha (Digitaria ciliaris [16]) | inhibition at 1200 g/ha (Digitaria ciliaris [9]) | inhibition at 75 g/ha [14]

CC(C)C12C=CC(C)(O1)C(OCc1ccccn1)C2 (centres unmarked) [3-755, 2-[(1-methyl-4-isopropyl-7-oxabicyclo[2.2.1]hept-5-en-2-yl)oxymethyl]pyridine]
≥ 80%: inhibition at 1200 g/ha (Echinochloa crus-galli [1]) | pest or weed control at 1200 g/ha [3] | pest or weed control at 1200 g/ha (Scirpus juncoides [4]) | inhibition at 75 g/ha [10] | inhibition at 75 g/ha (Echinochloa crus-galli [11]) | inhibition at 75 g/ha (Digitaria ciliaris [12]) | inhibition at 1200 g/ha (Echinochloa crus-galli [5]) | inhibition at 1200 g/ha (Digitaria ciliaris [6]) | inhibition at 1200 g/ha [7] | inhibition at 1200 g/ha (Scirpus juncoides [13]) | inhibition at 75 g/ha (Echinochloa crus-galli [15]) | inhibition at 75 g/ha (Digitaria ciliaris [16]) | inhibition at 1200 g/ha (Digitaria ciliaris [9]) | inhibition at 75 g/ha [14]

CC(C)C12C=CC(C)(O1)C(OCc1cccs1)C2 (centres unmarked) [3-756, 1-isopropyl-4-methyl-5-(2-thienylmethoxy)-7-oxabicyclo[2.2.1]hept-2-ene]
≥ 80%: inhibition at 1200 g/ha (Echinochloa crus-galli [1]) | pest or weed control at 1200 g/ha [3] | pest or weed control at 1200 g/ha (Scirpus juncoides [4]) | inhibition at 75 g/ha [10] | inhibition at 75 g/ha (Echinochloa crus-galli [11]) | inhibition at 75 g/ha (Digitaria ciliaris [12]) | inhibition at 1200 g/ha (Echinochloa crus-galli [5]) | inhibition at 1200 g/ha (Digitaria ciliaris [6]) | inhibition at 1200 g/ha [7] | inhibition at 1200 g/ha (Scirpus juncoides [13]) | inhibition at 75 g/ha (Echinochloa crus-galli [15]) | inhibition at 75 g/ha (Digitaria ciliaris [16]) | inhibition at 1200 g/ha (Digitaria ciliaris [9]) | inhibition at 75 g/ha [14]

CC(C)C12C=CC(C)(O1)C(OCc1ccsc1)C2 (centres unmarked) [3-757, 1-isopropyl-4-methyl-5-(3-thienylmethoxy)-7-oxabicyclo[2.2.1]hept-2-ene]
≥ 80%: inhibition at 1200 g/ha (Echinochloa crus-galli [1]) | pest or weed control at 1200 g/ha [3] | pest or weed control at 1200 g/ha (Scirpus juncoides [4]) | inhibition at 75 g/ha [10] | inhibition at 75 g/ha (Echinochloa crus-galli [11]) | inhibition at 75 g/ha (Digitaria ciliaris [12]) | inhibition at 1200 g/ha (Echinochloa crus-galli [5]) | inhibition at 1200 g/ha (Digitaria ciliaris [6]) | inhibition at 1200 g/ha [7] | inhibition at 1200 g/ha (Scirpus juncoides [13]) | inhibition at 75 g/ha (Echinochloa crus-galli [15]) | inhibition at 75 g/ha (Digitaria ciliaris [16]) | inhibition at 1200 g/ha (Digitaria ciliaris [9]) | inhibition at 75 g/ha [14]
